Laboratory results published in patent US20240218022A1, “ANTI-VISTA MACROCYCLIC PEPTIDES AND COMPOSITIONS” (BRISTOL-MYERS SQUIBB COMPANY, priority 2022, published 2024).
Read-outs that look alike come from different tables or passages of the source. Starred links: 1 amine or outer side, 2 acyl side, 3 side chain; linkers in the order of their positions; H or OH if unused. Positions of bridges follow the written chain, without caps; N, C: chain ends. Non-standard residues stand in square brackets, D forms with d. Residues, ends and D or L forms follow the SMILES beside them. NMeW = CN[C@@H](Cc1c[nH]c2ccccc12)C(=O)O; γGlu = O=C(O)[C@H](CCC(=O)[*:2])N[*:1]; βAsp = O=C(O)[C@H](CC(=O)[*:2])N[*:1]; NMeY = CN[C@@H](Cc1ccc(O)cc1)C(=O)O; Tic = O=C(O)[C@@H]1Cc2ccccc2CN1; Cit = NC(=O)NCCC[C@H](N)C(=O)O; NMeL = CN[C@@H](CC(C)C)C(=O)O; Ahp(2) = CCCCC[C@H](N)C(=O)O; Tle = CC(C)(C)[C@H](N)C(=O)O; NMeV = CN[C@H](C(=O)O)C(C)C; NMeS = CN[C@@H](CO)C(=O)O; NHexGly = CCCCCCNCC(=O)O; Nle = CCCC[C@H](N)C(=O)O; Orn = NCCC[C@H](N)C(=O)O; Aun = NCCCCCCCCCCC(=O)O; AEEA = NCCOCCOCC(=O)O

Target: T1, mouse VISTA (mVISTA) (Mus musculus, UniProt Q9D659)
T1 construct: expressed in transfected cells; host or cells: Human embryonic kidney 293T cells
T1 sequence (Q9D659 33-308): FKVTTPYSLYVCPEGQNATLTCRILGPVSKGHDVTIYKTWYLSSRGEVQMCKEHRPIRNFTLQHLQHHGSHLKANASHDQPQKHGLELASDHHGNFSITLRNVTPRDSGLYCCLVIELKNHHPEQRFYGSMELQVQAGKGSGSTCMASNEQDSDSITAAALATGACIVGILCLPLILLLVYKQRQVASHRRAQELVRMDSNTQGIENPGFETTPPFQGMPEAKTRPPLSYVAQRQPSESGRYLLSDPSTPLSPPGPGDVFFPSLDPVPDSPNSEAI
Assay: Cell-Based Binding High-Content Assay For mVISTA (HC CBA mVISTA)
Outline: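 Read-out: Alexa 647–streptavidin signal imaged on fixed, Hoechst-stained mVISTA-293T cells, with IC50 taken from a four-parameter logistic curve. Compounds competed with 2 nM biotinylated peptide for 30 min at room temperature, tested under both no-wash and wash (1 h compound, media exchange, 1 h) formats.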

Row | SMILES | IC50 (read-out: HC CBA mVISTA IC50) [nM] | IC50 (cell-based binding high-content assay, mVISTA, read-out: HC CBA miPr ISTA IC50) [nM]
1 | CCCCCCN1CC(=O)N[C@@H](Cc2ccc(O)cc2)C(=O)N[C@@H](CCCC)C(=O)N[C@@H](CC(N)=O)C(=O)N[C@@H](CCCNC(=N)N)C(=O)N(C)[C@@H](CO)C(=O)N[C@@H](CCCCC)C(=O)N2CCC[C@H]2C(=O)N[C@@H](C(C)C)C(=O)N[C@@H](CC(=O)O)C(=O)N[C@H](C(=O)NCC(=O)O)CSCC(=O)N[C@@H](Cc2ccccc2)C(=O)N[C@@H](Cc2c[nH]c3ccccc23)C(=O)N[C@@H](CC(=O)O)C1=O [Example 1408] ({CH2CO}-FWD[NHexGly]Y[Nle]NR[NMeS][Ahp(2)]PVDCG-OH; thioether N-14) | 20.8 | –
2 | CCCCCCN1CC(=O)N[C@@H](Cc2ccc(O)cc2)C(=O)N[C@@H](CCCC)C(=O)N[C@@H](CC(N)=O)C(=O)N[C@@H](CCCNC(=N)N)C(=O)N(C)[C@@H](C(C)C)C(=O)N[C@@H](CCCCC)C(=O)N2CCC[C@H]2C(=O)N[C@@H](C(C)C)C(=O)N[C@@H](CC(=O)O)C(=O)N[C@H](C(=O)NCC(=O)O)CSCC(=O)N[C@@H](Cc2ccccc2)C(=O)N[C@@H](Cc2c[nH]c3ccccc23)C(=O)N[C@@H](CC(=O)O)C1=O [Example 1409] ({CH2CO}-FWD[NHexGly]Y[Nle]NR[NMeV][Ahp(2)]PVDCG-OH; thioether N-14) | 12.7 | –
3 | CCCCCCN1CC(=O)N[C@@H](Cc2ccc(O)cc2)C(=O)N[C@@H](CCCC)C(=O)N[C@@H](CC(N)=O)C(=O)N[C@@H](CCCNC(=N)N)C(=O)N(C)[C@@H](Cc2c[nH]c3ccccc23)C(=O)N[C@@H](CCCCC)C(=O)N2CCC[C@H]2C(=O)N[C@@H](C(C)C)C(=O)N[C@@H](CC(=O)O)C(=O)N[C@H](C(=O)NCC(=O)O)CSCC(=O)N[C@@H](Cc2ccccc2)C(=O)N[C@@H](Cc2c[nH]c3ccccc23)C(=O)N[C@@H](CC(=O)O)C1=O [Example 1410] ({CH2CO}-FWD[NHexGly]Y[Nle]NR[NMeW][Ahp(2)]PVDCG-OH; thioether N-14) | 5.3 | –
4 | CCCCCCN1CC(=O)N[C@@H](Cc2ccc(O)cc2)C(=O)N[C@@H](CCCC)C(=O)N[C@@H](CC(N)=O)C(=O)N[C@@H](CCCNC(=N)N)C(=O)N(C)[C@@H](Cc2ccc(O)cc2)C(=O)N[C@@H](CCCCC)C(=O)N2CCC[C@H]2C(=O)N[C@@H](C(C)C)C(=O)N[C@@H](CC(=O)O)C(=O)N[C@H](C(=O)NCC(=O)O)CSCC(=O)N[C@@H](Cc2ccccc2)C(=O)N[C@@H](Cc2c[nH]c3ccccc23)C(=O)N[C@@H](CC(=O)O)C1=O [Example 1411] ({CH2CO}-FWD[NHexGly]Y[Nle]NR[NMeY][Ahp(2)]PVDCG-OH; thioether N-14) | 18.6 | –
5 | CCCCCCN1CC(=O)N[C@@H](Cc2ccc(O)cc2)C(=O)N[C@@H](CCCC)C(=O)N[C@@H](CC(N)=O)C(=O)N[C@@H](CCCNC(N)=O)C(=O)N2Cc3ccccc3C[C@H]2C(=O)N[C@@H](CCCCC)C(=O)N2CCC[C@H]2C(=O)N[C@@H](C(C)C)C(=O)N[C@@H](CC(=O)O)C(=O)N[C@H](C(=O)NCC(N)=O)CSCC(=O)N[C@@H](Cc2ccccc2)C(=O)N[C@@H](Cc2c[nH]c3ccccc23)C(=O)N[C@@H](CC(=O)O)C1=O [Example 1412] ({CH2CO}-FWD[NHexGly]Y[Nle]N[Cit][Tic][Ahp(2)]PVDCG-NH2; thioether N-14) | 13.1 | –
6 | CCCCCCN1CC(=O)N[C@@H](Cc2ccc(O)cc2)C(=O)N[C@@H](CCCC)C(=O)N[C@@H](CC(N)=O)C(=O)N[C@@H](CCCNC(N)=O)C(=O)N2Cc3ccccc3C[C@H]2C(=O)N[C@@H](CCCCC)C(=O)N2CCC[C@H]2C(=O)N[C@@H](C(C)C)C(=O)N[C@@H](CO)C(=O)N[C@H](C(=O)NCC(N)=O)CSCC(=O)N[C@@H](Cc2ccccc2)C(=O)N[C@@H](Cc2c[nH]c3ccccc23)C(=O)N[C@@H](CC(=O)O)C1=O [Example 1413] ({CH2CO}-FWD[NHexGly]Y[Nle]N[Cit][Tic][Ahp(2)]PVSCG-NH2; thioether N-14) | 18.9 | –
7 | CCCCCCN1CC(=O)N[C@@H](Cc2ccc(O)cc2)C(=O)N[C@@H](CCCC)C(=O)N[C@@H](CC(N)=O)C(=O)N[C@@H](CCCNC(=N)N)C(=O)N2Cc3ccccc3C[C@H]2C(=O)N[C@@H](CCCCC)C(=O)N2CCC[C@H]2C(=O)N[C@@H](C(C)C)C(=O)N[C@@H](CC(=O)O)C(=O)N[C@H](C(=O)NCC(N)=O)CSCC(=O)N[C@@H](Cc2ccccc2)C(=O)N[C@@H](Cc2c[nH]c3ccccc23)C(=O)N[C@@H](CC(=O)O)C1=O [Example 1414] ({CH2CO}-FWD[NHexGly]Y[Nle]NR[Tic][Ahp(2)]PVDCG-NH2; thioether N-14) | 12.3 | –
8 | CCCCCCN1CC(=O)N[C@@H](Cc2ccc(O)cc2)C(=O)N[C@@H](CCCC)C(=O)N[C@@H](CC(N)=O)C(=O)N[C@@H](CCCNC(=N)N)C(=O)N2Cc3ccccc3C[C@H]2C(=O)N[C@@H](CCCCC)C(=O)N2CCC[C@H]2C(=O)N[C@@H](C(C)C)C(=O)N[C@@H](CO)C(=O)N[C@H](C(=O)NCC(N)=O)CSCC(=O)N[C@@H](Cc2ccccc2)C(=O)N[C@@H](Cc2c[nH]c3ccccc23)C(=O)N[C@@H](CC(=O)O)C1=O [Example 1415] ({CH2CO}-FWD[NHexGly]Y[Nle]NR[Tic][Ahp(2)]PVSCG-NH2; thioether N-14) | 18.1 | –
9 | CCCCCCN1CC(=O)N[C@@H](Cc2ccc(O)cc2)C(=O)N[C@@H](CC(C)C)C(=O)NCC(=O)N[C@@H](CCCNC(=N)N)C(=O)N[C@@H](Cc2ccc(O)cc2)C(=O)N[C@@H](CCCCC)C(=O)N2CCC[C@H]2C(=O)N[C@@H](C(C)C)C(=O)N[C@@H](CC(=O)O)C(=O)N[C@H](C(=O)NCC(N)=O)CSCC(=O)N[C@@H](Cc2ccccc2)C(=O)N[C@@H](Cc2c[nH]c3ccccc23)C(=O)N[C@@H](CC(=O)O)C1=O [Example 1416] ({CH2CO}-FWD[NHexGly]YLGRY[Ahp(2)]PVDCG-NH2; thioether N-14) | 51.7 | –
10 | CCCCCCN1CC(=O)N[C@@H](Cc2ccc(O)cc2)C(=O)N[C@@H](CC(C)C)C(=O)NCC(=O)N[C@@H](CCCNC(=N)N)C(=O)N[C@@H](Cc2ccc(O)cc2)C(=O)N[C@@H](CCCCC)C(=O)N2CCC[C@H]2C(=O)N[C@@H](C(C)C)C(=O)N[C@@H](CC(=O)O)C(=O)N[C@H](C(=O)NCC(=O)O)CSCC(=O)N[C@@H](Cc2ccccc2)C(=O)N[C@@H](Cc2c[nH]c3ccccc23)C(=O)N[C@@H](CC(=O)O)C1=O [Example 1417] ({CH2CO}-FWD[NHexGly]YLGRY[Ahp(2)]PVDCG-OH; thioether N-14) | 24.9 | –
11 | CCCCCCN1CC(=O)N[C@@H](Cc2ccc(O)cc2)C(=O)N[C@@H](CC(C)C)C(=O)N[C@@H](CC(N)=O)C(=O)N[C@@H](CCCN)C(=O)N(C)[C@@H](CC(C)C)C(=O)N[C@@H](CCCCC)C(=O)N2CCC[C@H]2C(=O)N[C@@H](C(C)(C)C)C(=O)N[C@@H](CO)C(=O)N[C@H](C(=O)N[C@@H](CC(=O)NCCOCCOCC(=O)N[C@@H](CC(=O)O)C(=O)NCCOCCOCC(=O)NCCCCCCCCCCC(=O)O)C(=O)O)CSCC(=O)N[C@@H](Cc2ccccc2)C(=O)N[C@@H](Cc2ccc(O)cc2)C(=O)N[C@@H](CC(=O)O)C1=O [Example 2000] ({CH2CO}-FYD[NHexGly]YLN[Orn][NMeL][Ahp(2)]P[Tle]SC[βAsp][AEEA]D[AEEA][Aun]-OH; thioether N-14) | – | 16.1
12 | CCCCCCN1CC(=O)N[C@@H](Cc2ccc(O)cc2)C(=O)N[C@@H](CC(C)C)C(=O)N[C@@H](CC(N)=O)C(=O)N[C@@H](CCCNC(=N)N)C(=O)N[C@@H](CC(C)C)C(=O)N[C@@H](CCCCC)C(=O)N2CCC[C@H]2C(=O)N[C@@H](C(C)C)C(=O)N[C@@H](CO)C(=O)N[C@H](C(=O)N[C@@H](CCC(=O)NCCCCCCCCCCC(=O)O)C(=O)O)CSCC(=O)N[C@@H](Cc2ccccc2)C(=O)N[C@@H](Cc2ccc(O)cc2)C(=O)N[C@@H](CC(=O)O)C1=O [Example 2127] ({CH2CO}-FYD[NHexGly]YLNRL[Ahp(2)]PVSC[γGlu][Aun]-OH; thioether N-14) | 15.9 | –
13 | CCCCCCN1CC(=O)N[C@@H](Cc2ccc(O)cc2)C(=O)N[C@@H](CC(C)C)C(=O)NCC(=O)N[C@@H](CCCNC(=N)N)C(=O)N[C@@H](CC(C)C)C(=O)N[C@@H](CCCCC)C(=O)N2CCC[C@H]2C(=O)N[C@@H](C(C)C)C(=O)N[C@@H](CO)C(=O)N[C@H](C(=O)N[C@@H](CCC(=O)NCCCCCCCCCCC(=O)O)C(=O)O)CSCC(=O)N[C@@H](Cc2ccccc2)C(=O)N[C@@H](Cc2ccc(O)cc2)C(=O)N[C@@H](CC(=O)O)C1=O [Example 2128] ({CH2CO}-FYD[NHexGly]YLGRL[Ahp(2)]PVSC[γGlu][Aun]-OH; thioether N-14) | 30.1 | –
14 | CCCCCCN1CC(=O)N[C@@H](Cc2ccc(O)cc2)C(=O)N[C@@H](CCCCC)C(=O)N[C@@H](CC(N)=O)C(=O)N[C@@H](CCCNC(=N)N)C(=O)N[C@@H](Cc2c[nH]c3ccccc23)C(=O)N[C@@H](CCCCC)C(=O)N2CCC[C@H]2C(=O)N[C@@H](C(C)C)C(=O)N[C@@H](CO)C(=O)N[C@H](C(=O)N[C@@H](CCC(=O)NCCCCCCCCCCC(=O)O)C(=O)O)CSCC(=O)N[C@@H](Cc2ccccc2)C(=O)N[C@@H](Cc2ccc(O)cc2)C(=O)N[C@@H](CC(=O)O)C1=O [Example 2129] ({CH2CO}-FYD[NHexGly]Y[Ahp(2)]NRW[Ahp(2)]PVSC[γGlu][Aun]-OH; thioether N-14) | 16.6 | –
15 | CCCCCCN1CC(=O)N[C@@H](Cc2ccc(O)cc2)C(=O)N[C@@H](CCCC)C(=O)NCC(=O)N[C@@H](CCCNC(=N)N)C(=O)N[C@@H](CC(C)C)C(=O)N[C@@H](CCCCC)C(=O)N2CCC[C@H]2C(=O)N[C@@H](C(C)C)C(=O)N[C@@H](CC(N)=O)C(=O)N[C@H](C(=O)N[C@@H](CCC(=O)NCCCCCCCCCCC(=O)O)C(=O)O)CSCC(=O)N[C@@H](Cc2ccccc2)C(=O)N[C@@H](Cc2ccc(O)cc2)C(=O)N[C@@H](CC(=O)O)C1=O [Example 2130] ({CH2CO}-FYD[NHexGly]Y[Nle]GRL[Ahp(2)]PVNC[γGlu][Aun]-OH; thioether N-14) | 37.2 | –
